From PMC12567248 (Pharmaceutics, 2025)
Like-named read-outs stand apart in the source and are kept apart here.

How the values were obtained:
[1] = In vitro drug release study, sample and separation method, with release model fitting; assay type: physicochemical; details: 37.5 °C
Protocol: The release media used were ultrapure water, 0.1 N phosphate-buffered saline (PBS) pH 7.4 for simulated blood pH, PBS pH 6.8 for simulated intestinal fluid, and 0.1 N HCl pH 2.0 for simulated gastric fluid. […] The setup was stirred at 75 rpm at 37.5 ± 0.5 °C. […] A fresh amount of the media was used to compensate for the amount of the release media taken at every time point. The aliquots were centrifuged at 5000 rpm for 10 min. The supernatant liquid was stored for syringic acid quantification using HPLC analysis, while the pellets were returned to the setup. The cumulative amount of syringic acid released from the MIL-100(Fe) was utilized to predict and correlate the behavior of the in vitro release. The experimental data were fitted to five predictable models: zero-order, first-order, Higuchi, Korsmeyer–Peppas, and Hixson–Crowell models. Data fitting was performed by linear regression using Microsoft Excel. The correlation coefficient (r^2) was utilized as a criterion for selecting the best model that describes the release profile in the three media. An r^2 value close to 1 signifies the best correlation.

Male Sprague Dawley Rats = assay: Acute oral toxicity, OECD procedure 423; details: rat, in vivo
Protocol: Acute oral toxicity was analyzed in accordance with the OECD guidelines for testing chemical compounds using the acute toxic class method (OECD procedure 423). Prior to dosing, 1 mL of the blood was extracted from the test animals (Male Sprague Dawley Rats, 200–250 g) using the tail vein method and was submitted for alanine aminotransferase (ALT), aspartate aminotransferase (AST), and blood urea nitrogen (BUN), and creatinine level determinations for signs of liver and kidney damages, respectively. […] Since no test animals were recorded to show any signs of toxicity or death, an additional three test animals were given the same dose. […] After the 14 days of observation, the test animals were sedated using Zoletil 50 (50 mg tiletamine base, 50 mg zolazepam base, and 57.7 mg mannitol per mL) at a dose of 50 mg kg^−1 prior to blood extraction using the cardiac puncture method. The animals were euthanized using a carbon dioxide chamber. The blood samples were analyzed for liver and kidney functions. The major organs, such as the liver and kidneys of the test animals, were harvested for tissue mounting and histopathological analysis.

[2] = Oral and intraperitoneal bioavailability, syringic acid in blood; assay type: in vivo, Sprague Dawley rats; details: Sprague Dawley, rat, serum; for AUC(0-t): read-out: AUC0–72 (converted)
Protocol: (§1) The reduction in the dosing for the intraperitoneal route is to prevent abdominal distress in the test animal post-administration.
After the given time points, the test animals were sedated using Zoletil 50 (50 mg tiletamine base, 50 mg zolazepam base, and 57.7 mg mannitol per mL) at a dose of […] before blood extraction using the cardiac puncture method. The blood was allowed to clot and centrifuged at 4000 rpm at 4 °C for 5 min to obtain the serum. The sera were mixed with an equal amount of methanol to precipitate proteins and centrifuged again to obtain the deproteinized sera. The procedure was repeated until no precipitation with methanol occurred. The protein-free sera were dried under reduced pressure for prior analysis using HPLC.
(§2) Samples were prepared using the mobile phase consisting of 80:20 water with 0.1% acetic acid: methanol. HPLC analysis was performed using a linear gradient elution at a flow rate of 1.0 mL min^−1. The gradient program started at 80:20 (water with 0.1% acetic acid: methanol) and linearly progressed to 40:60 over 10 min. The column oven temperature was maintained at 30 °C. Detection was carried out using a PDA detector set at 218 nm.

[3] = Tissue distribution of syringic acid in liver and kidney; assay type: in vivo, Sprague Dawley rats; details: for Cmax / Tmax / half-life: Sprague Dawley, rat; for AUC0–72 / AUC0–∞: 100 mg kg^−1 syringic acid or equivalent amount in SYA@MIL-100(Fe)
Protocol: as §1
After the blood collection from the test animals, the animals were euthanized, and the organs, such as the liver and kidneys, were taken. The organs were pat-dried and weighed to determine the amount of NSS to be used for homogenization (1 mL of NSS per 700 mg of organ). The organs were homogenized and mixed with equal amounts of absolute ethanol. The mixture was centrifuged at 5000 rpm for 10 min. The serum samples were supplemented with an equal amount of absolute ethanol to facilitate the precipitation of proteins. This procedure was performed until no precipitation occurred. The supernatant was allowed to dry under reduced pressure before HPLC analysis.
as §2

[4] = rabbits, printed as administered intravenously; cited from earlier work
[5] = cited from earlier work

cumulative release of syringic acid ([1]; 0.1 N HCl, after 30 h): 110.99%
cumulative release of syringic acid ([1]; PBS pH 6.8, after 30 h): 110.93%
cumulative release of syringic acid ([1]; PBS pH 7.4, after 30 h): 117.55%
cumulative release of syringic acid ([1]; water, after 30 h): 94.67%
Tmax ([2]; ip, 25 mg kg^−1): 0.933 h
half-life ([2]; ip, 25 mg kg^−1): 16.7 ± 6.83 h
AUC(0-t) ([2]; ip, 25 mg kg^−1): 72800 ng·h/mL
half-life ([2]; po, 100 mg/kg): 1.98 ± 0.513 h
AUC(0-t) ([2]; po, 100 mg/kg): 23600 ng·h/mL
Cmax ([3]; 100 mg kg^−1, kidney, oral, read-out: maximum concentration (Cmax)): 105000 ± 9790 ng/g
Cmax ([3]; 100 mg kg^−1, liver, oral): 163000 ng/g
Cmax ([3]; ip, 25 mg kg^−1, kidney, intraperitoneal, read-out: Cmax): 218000 ± 8730 ng/g
Cmax ([3]; ip, 25 mg kg^−1, liver, intraperitoneal, read-out: Cmax): 40100 ± 560 ng/g
Tmax ([3]; kidney, ip, 25 mg kg^−1): 0.402 h
half-life ([3]; kidney, ip, 25 mg kg^−1): 80.1 ± 54.5 h
Tmax ([3]; kidney, po, 100 mg/kg): 0.47 h
half-life ([3]; kidney, po, 100 mg/kg): 0.626 ± 0.0782 h
Cmax ([3]; kidney, po, 100 mg/kg, read-out: Cmax): 105000 ± 9790 ng/g
Tmax ([3]; liver, ip, 25 mg kg^−1): 0.412 h
half-life ([3]; liver, ip, 25 mg kg^−1): 30.9 ± 18.4 h
Tmax ([3]; liver, po, 100 mg/kg): 8.6 h
half-life ([3]; liver, po, 100 mg/kg): 38.1 ± 13.5 h
Cmax ([3]; liver, po, 100 mg/kg, read-out: Cmax): 16300 ± 3540 ng/g
AUC0–72 ([3]; kidney, oral): 77,103.33 ± 2531.03 μg min g^−1
AUC0–∞ ([3]; kidney, oral): 78,035.27 ± 2458.81 μg min g^−1
AUC0–72 ([3]; liver, oral): 32,000.33 ± 3544.16 μg min g^−1
AUC0–∞ ([3]; liver, oral): 47,401.91 ± 8515.77 μg min g^−1
SMILES: COc1cc(C(=O)O)cc(OC)c1O [Syringic Acid, 3,5-Dimethoxy-4-hydroxybenzoic acid]
BUN before administration (Male Sprague Dawley Rats): 14.71 ± 0.51 mg per dL
SGOT before administration (Male Sprague Dawley Rats): 337.30 ± 34.87 units per liter
SGPT before administration (Male Sprague Dawley Rats): 87.96 ± 14.9 units per liter
serum creatinine before administration (Male Sprague Dawley Rats): 0.58 ± 0.01 mg per dL
absolute bioavailability [4]: 86.27%
Cmax [5]: 4500 ± 40 ng/mL
Tmax [5]: 8 min
area under the curve [5]: 2010 ± 48.7 ng·h/mL
